# Results: patent publication US4386103A, “Dichloroamino acid derivatives useful as potent germicidal and fungicidal agents” (Merck & Co., Inc., priority 1981, dated 1983)
# What was measured:
# Type in all cases: cell-based
# Microsporum canis = test: Contact fungicidal screen, Microsporum canis; conditions: 0.1M NaOAc pH 4.6
# Method: (§1) The organisms used in the Contact Fungicidal Screen are a dermatophyte, trychophyton mentagrophytes, frequently associated with athlete's foot; a yeast, Candida albican, causative agent of thrush and vaginitis; a phycomycete, Rhizopus oryzae, commonly known as black bread mold; an ascomycete, Aspergillus fumagatis, found in chicken droppings and causing lung infections; and another dermatophyte, Microsporum canis, which causes ringworm. These organisms are maintained as stock cultures at 4° C. on agar […] of the following composition: dextrose 2%, Neopeptone (Difco) 1%, agar 2%. Fluid medium of the same nutrient composition (without agar) was used to test the viability of the organisms after exposure to the fungicide. This medium is also known as Sabouraud's medium. Sabouraud's agar plate cultures of Aspergillus fumigatus, Microsporum canis, and a different culture of Trychophyton mentagrophytes are prepared by planting an inoculum at the center of an agar plate and incubating at 25°-30° C. for seven to ten days. The mycelial mats are removed from the surface of the agar and prepared in the same manner as the Rhizopus culture. The compounds are weighed into heat sterilized 100 ml volumetric flasks and immediately before screening dissolved in 0.1 M NaOAc pH 4.6 buffer (test solutions). The Aspergillus, Candida, Microsporum and Rhizopus species are screened in a slightly different manner. Basically, the procedure for the Contact Germicidal Efficiency Screen is utilized. After the test solutions are made up, 5 ml aliquots are pipetted into heat sterilized 25 ml glass stoppered erlenmeyer flasks. The screen is initiated when 0.5 ml of the 5×10^6 cell (spore) per ml suspension is added to the flask containing 5 ml of the test solution. […] The subculture tubes are incubated at 25°-30° C. for ten days with daily observation for mycelial growth. The earliest subculture time at which no growth is present is considered the endpoint and is recorded as the sterilization time. To insure the viability of the culture, a 0.5 ml aliquot of the 5×10^6 cells (spores) per ml suspension is transferred to 5 ml of the pH 4.6 buffer. A loopful of the inoculated buffer is then subcultured to 7 ml of fluid Sabouraud's medium and incubated at 25°-30° C. for ten days. To insure that the dilution of the test solution into the subculture medium does stop the action, a loopful of the test solution and a loopful of the inoculated buffer are transferred into the same subculture tube. This tube is also incubated at 25°-30° C. for ten days.
# Bacillus subtilis = test: Contact germicidal screen, Bacillus subtilis ATCC No. 60511
# Method: (§2) The organisms used in the contact germicidal screen are all maintained as stock cultures on nutrient agar […] 4° C. They are transferred and biochemically diagnosed monthly. The five organisms used are: The media used are: […] Overnight cultures of the test organisms are grown in tryptose phosphate broth. After 15-16 hours, the cultures are centrifuged at […] for 15 minutes, and the supernatant replaced with fresh warm (37° C.) media. After two hours of incubation, the absorbance of the culture at 650 nm is determined and diluted with nutrient broth to 1×10^7 colony forming units per ml (using a previous determined standard curve: colony forming units/ml vs. absorbance at 650). The diluted cultures are maintained at 4°-8° C. throughout the screen. The compounds are weighed into sterile 100 ml volumetric flasks, and immediately before screening dissolved in one of the following buffers: 0.1 M NaOAc pH 4.6 or 0.1 M NaH2 PO4 pH 7.0. If solubility poses a problem, 10-30% methanol is used to effect solution. Two denaturing agents are also tested: […] Horse Serum restored with 100 ml distilled water and 10% Trition×100. When used, 2.5 ml of the denaturing agent is mixed with 2.5 ml of double strength test solution thirty minutes before the bacterial suspension is added. The screen is initiated when 0.2 ml of the bacterial suspension is added to 5.0 ml of the test solution contained in a sterile 25 ml glass stoppered flask. At intervals of 0.5, 2.5, 5.0, 10.0 and 15.0 minutes, a loopful of the inoculated test solution is subcultured into 5 ml of sterile nutrient broth and mixed with a vortex, the high dilution serving to stop the action of the compound. All of the subculture tubes are incubated at 37° C. and checked for signs of growth by turbidity at 1, 3, 5 and 7 days. The earliest subculture time at which no growth is present is considered the endpoint and is recorded as the sterilization time. An aliquot of 0.2 ml of the diluted culture is transferred to 5 ml of buffer to simulate 0.2 ml in 5 ml of test solution. (a) Purity: A loopful of the inoculated buffer is streaked onto nutrient agar to check colony morphology and lack of contaminants. (b) Viability: A loopful of the inoculated buffer is subcultured to 5 ml of nutrient broth as in the screen and incubated at 37° C. for 24 hours. (c) Dilution of the Test Solution: A loopful of the test solution is transferred to a 5 ml tube of nutrient broth, and a loopful of the inoculated buffer is transferred to the same tube of broth. […] (d) Purity of Organisms in the Test Solution: After the 15 minute subculture, a loopful of the inoculated test solution is streaked onto nutrient agar to insure that contamination has not occurred during the screen. (e) lack of Bactericidal Activity of Buffers and Other Solvents: Before a buffer or other solvent is used as a diluent, it is screened against the five organisms to insure that the buffer or solvent has no antibacterial activity itself.
# Aspergillus fumigatus = test: Contact fungicidal screen, Aspergillus fumigatus; conditions: 0.1M NaOAc pH 4.6
# Method: as §1
# Staphylococcus aureus = test: Contact germicidal screen, Staphylococcus aureus ATCC No. 6538
# Method: as §2
# [1] = system: Trychophyton mentagrophytes; test: Contact fungicidal screen, Trychophyton mentagrophytes; conditions: 0.1M NaOAc pH 4.6
# [2] = 10.0+ PPM, 0.1M NaOAc pH 4.6, screened simultaneously with four other compounds
# [3] = 291.4 PPM, Triton X100 (10% solution):pH 4.6 buffer 1:1
# [4] = 291.4 PPM, horse serum:pH 4.6 buffer 1:1
# [5] = 300 PPM with 50% Horse Serum, 0.1M NaOAc pH 4.6
# [6] = 300 PPM with 50% Triton X100, 0.1M NaOAc pH 4.6
# [7] = 1000 PPM with 50% Horse Serum, 0.1M NaOAc pH 4.6
# [8] = 1024.4 PPM, 0.1M NaH2PO4 pH 7.0
# [9] = 1042.0 PPM, horse serum:pH 4.6 buffer 1:1
# [10] = 308.0 PPM, Triton X100 (10% solution):pH 4.6 buffer 1:1
# [11] = 338.7 PPM, horse serum:pH 4.6 buffer 1:1
# [12] = 1024.0 PPM, horse serum:pH 4.6 buffer 1:1
# [13] = 1070.3 PPM, 0.1M NaH2PO4 pH 7.0
smiles,measurement,setting,value
"CC(C)(COC(=O)CCCC(=O)O)N(Cl)Cl [(V), 2-dichloramino-2-methylpropyl-hemiglutarate]",Sterilization Time,Microsporum canis; 10 PPM,15 min
same,Sterilization Time,Microsporum canis; 100 PPM,5.0 min
same,Sterilization Time,Microsporum canis; 1000 PPM,2.5 min
same,Sterilization Time,Bacillus subtilis; [2],2.5 min
same,Sterilization Time,"Bacillus subtilis; 10.0 PPM, 0.1M NaH2PO4 pH 7.0",15 min
same,Sterilization Time (summary),"Bacillus subtilis; 10 PPM, 0.1M NaOAc pH 4.6",2.5 min
same,Sterilization Time,"Bacillus subtilis; 10.0 PPM, 0.1M NaOAc pH 4.6",5.0 min
same,Sterilization Time,"Bacillus subtilis; 99.1 PPM, 0.1M NaOAc pH 4.6",2.5 min
same,Sterilization Time (summary),"Bacillus subtilis; 100 PPM, 0.1M NaOAc pH 4.6",2.5 min
same,Sterilization Time,"Bacillus subtilis; 106.7 PPM, 0.1M NaH2PO4 pH 7.0",10.0 min
same,Sterilization Time,Bacillus subtilis; [3],0.5 min
same,Sterilization Time,Bacillus subtilis; [4],5.0 min
same,Sterilization Time (summary),Bacillus subtilis; [5],5.0 min
same,Sterilization Time (summary),Bacillus subtilis; [6],0.5 min
same,Sterilization Time,"Bacillus subtilis; 911.8 PPM, 0.1M NaOAc pH 4.6",0.5 min
same,Sterilization Time (summary),Bacillus subtilis; [7],0.5 min
same,Sterilization Time (summary),"Bacillus subtilis; 1000 PPM, 0.1M NaOAc pH 4.6",0.5 min
same,Sterilization Time,Bacillus subtilis; [8],2.5 min
same,Sterilization Time,Bacillus subtilis; [9],0.5 min
same,Sterilization Time,Aspergillus fumigatus; 10 PPM,15 min
same,Sterilization Time,Aspergillus fumigatus; 100 PPM,15 min
same,Sterilization Time,Aspergillus fumigatus; 1000 PPM,15 min
same,Sterilization Time,Staphylococcus aureus; [2],10.0 min
same,Sterilization Time,"Staphylococcus aureus; 10.0 PPM, 0.1M NaH2PO4 pH 7.0",15 min
same,Sterilization Time (summary),"Staphylococcus aureus; 10 PPM, 0.1M NaOAc pH 4.6",10.0 min
same,Sterilization Time,"Staphylococcus aureus; 10.0 PPM, 0.1M NaOAc pH 4.6",10.0 min
same,Sterilization Time,"Staphylococcus aureus; 99.1 PPM, 0.1M NaOAc pH 4.6",2.5 min
same,Sterilization Time (summary),"Staphylococcus aureus; 100 PPM, 0.1M NaOAc pH 4.6",2.5 min
same,Sterilization Time,"Staphylococcus aureus; 106.7 PPM, 0.1M NaH2PO4 pH 7.0",15 min
same,Sterilization Time,Staphylococcus aureus; [3],2.5 min
same,Sterilization Time,Staphylococcus aureus; [4],15 min
same,Sterilization Time (summary),Staphylococcus aureus; [5],15 min
same,Sterilization Time (summary),Staphylococcus aureus; [6],2.5 min
same,Sterilization Time,"Staphylococcus aureus; 911.8 PPM, 0.1M NaOAc pH 4.6",0.5 min
same,Sterilization Time (summary),Staphylococcus aureus; [7],2.5 min
same,Sterilization Time (summary),"Staphylococcus aureus; 1000 PPM, 0.1M NaOAc pH 4.6",0.5 min
same,Sterilization Time,Staphylococcus aureus; [8],5.0 min
same,Sterilization Time,Staphylococcus aureus; [9],2.5 min
same,Sterilization Time,[1]; 10 PPM,5.0 min
same,Sterilization Time,[1]; 100 PPM,2.5 min
same,Sterilization Time,[1]; 1000 PPM,0.5 min
"CC(C)(COC(=O)CCC(=O)O)N(Cl)Cl [(IV), 2-Dichloroamino-2-methylpropylhemisuccinate]",Sterilization Time,Microsporum canis; 10 PPM,15 min
same,Sterilization Time,Microsporum canis; 100 PPM,15.0 min
same,Sterilization Time,Microsporum canis; 1000 PPM,2.5 min
same,Sterilization Time,"Bacillus subtilis; 8.6 PPM, 0.1M NaOAc pH 4.6",5.0 min
same,Sterilization Time,"Bacillus subtilis; 9.8 PPM, 0.1M NaH2PO4 pH 7.0",15 min
same,Sterilization Time,Bacillus subtilis; [2],2.5 min
same,Sterilization Time (summary),"Bacillus subtilis; 10 PPM, 0.1M NaOAc pH 4.6",2.5 min
same,Sterilization Time (summary),"Bacillus subtilis; 100 PPM, 0.1M NaOAc pH 4.6",2.5 min
same,Sterilization Time,"Bacillus subtilis; 106.2 PPM, 0.1M NaOAc pH 4.6",2.5 min
same,Sterilization Time,"Bacillus subtilis; 149.7 PPM, 0.1M NaH2PO4 pH 7.0",10.0 min
same,Sterilization Time (summary),Bacillus subtilis; [5],5.0 min
same,Sterilization Time (summary),Bacillus subtilis; [6],0.5 min
same,Sterilization Time,Bacillus subtilis; [10],0.5 min
same,Sterilization Time,Bacillus subtilis; [11],5.0 min
same,Sterilization Time (summary),Bacillus subtilis; [7],0.5 min
same,Sterilization Time (summary),"Bacillus subtilis; 1000 PPM, 0.1M NaOAc pH 4.6",0.5 min
same,Sterilization Time,"Bacillus subtilis; 1008.0 PPM, 0.1M NaOAc pH 4.6",0.5 min
same,Sterilization Time,Bacillus subtilis; [12],0.5 min
same,Sterilization Time,Bacillus subtilis; [13],2.5 min
same,Sterilization Time,Aspergillus fumigatus; 10 PPM,15 min
same,Sterilization Time,Aspergillus fumigatus; 100 PPM,15 min
same,Sterilization Time,Aspergillus fumigatus; 1000 PPM,15 min
same,Sterilization Time,"Staphylococcus aureus; 8.6 PPM, 0.1M NaOAc pH 4.6",15.0 min
same,Sterilization Time,"Staphylococcus aureus; 9.8 PPM, 0.1M NaH2PO4 pH 7.0",15 min
same,Sterilization Time,Staphylococcus aureus; [2],15 min
same,Sterilization Time (summary),"Staphylococcus aureus; 10 PPM, 0.1M NaOAc pH 4.6",15 min
same,Sterilization Time (summary),"Staphylococcus aureus; 100 PPM, 0.1M NaOAc pH 4.6",2.5 min
same,Sterilization Time,"Staphylococcus aureus; 106.2 PPM, 0.1M NaOAc pH 4.6",2.5 min
same,Sterilization Time,"Staphylococcus aureus; 149.7 PPM, 0.1M NaH2PO4 pH 7.0",10.0 min
same,Sterilization Time (summary),Staphylococcus aureus; [5],15.0 min
same,Sterilization Time (summary),Staphylococcus aureus; [6],2.5 min
same,Sterilization Time,Staphylococcus aureus; [10],2.5 min
same,Sterilization Time,Staphylococcus aureus; [11],15.0 min
same,Sterilization Time (summary),Staphylococcus aureus; [7],2.5 min
same,Sterilization Time (summary),"Staphylococcus aureus; 1000 PPM, 0.1M NaOAc pH 4.6",0.5 min
same,Sterilization Time,"Staphylococcus aureus; 1008.0 PPM, 0.1M NaOAc pH 4.6",0.5 min
same,Sterilization Time,Staphylococcus aureus; [12],2.5 min
same,Sterilization Time,Staphylococcus aureus; [13],10.0 min
same,Sterilization Time,[1]; 10 PPM,5.0 min
same,Sterilization Time,[1]; 100 PPM,2.5 min
same,Sterilization Time,[1]; 1000 PPM,0.5 min
